Source: patent publication US20160081959A1 (Glanbia plc, priority 2014, published 2016)
Like-named read-outs stand apart in the source and are kept apart here.

How the values were obtained:
[1] = Single dose oral pharmacokinetic study in fasted male Sprague Dawley rats (arginine in plasma, LC-MS/MS); type: in vivo
Procedure: Oral PK was determined in rats for ASI and several comparative compounds.
Test system: Sprague Dawley rats, male. Aged 7-9 weeks at the time of receipt.
Sample size: Study groups—4 groups per study; 5 animals/group.
The test compounds were administered through oral gavage. Oral route of administration is one of the preferred routes of administration in humans.
(§1) Study Group 1: Single dose oral pharmacokinetic study of ResArgin in male Sprague Dawley rats at a dose equivalent to 500 mg of L-Arginine/kg body weight. Male Sprague Dawley Rats aged 8-10 weeks were used for experimentation after a minimum 3 days of acclimatization. Fasted animals were administered ResArgin in a recommended vehicle (0.5% (w/v) Carboxymethylcellulose in sterile water) by oral route with a dose equivalent to 500 mg L-Arginine/kg body weight at dose volume of 10 mL/kg body weight.
Under mild isoflurane anesthesia, blood specimens were collected at time points (0.0 h, 0.16 h, 0.25 h, 0.50 h, 1.00 h, 2.00 h, 4.00 h, 6.00 h) post-dose as mentioned in Table 1 into pre-labeled tubes containing anticoagulant (K2EDTA—2 mg/mL blood) during the next 24 hours. Collected blood specimens were centrifuged at 4000 rpm, 4° C. for 10 minutes and plasma was separated and stored at −80° C. until analysis.
Study Group 2: Single dose oral pharmacokinetic study of L-Arginine in male Sprague Dawley rats at a dose of 500 mg/kg body weight. Male Sprague Dawley Rat aged 8-10 weeks were used for experimentation after a minimum 3 days of acclimatization. Fasted animals were administered L-Arginine in a recommended vehicle (0.5% (w/v) Carboxymethylcellulose in sterile water by oral route with 500 mg/kg body weight at dose volume of 10 mL/kg body weight.
as §1, with “3:” for “1:”, “L-Arginine HCl” for “ResArgin”
Male Sprague Dawley Rats aged 8-10 weeks were used for experimentation after a minimum 3 days of acclimatization.
Bioanalytical method(s) for the determination of arginine in Rat plasma were developed using LC-MS/MS. The developed methods were used for plasma sample analysis. Chromatograms were acquired using Analyst® software version 1.4.2. The concentration of the unknown sample was calculated from the following equation using regression analysis with peak area ratio of standard and ISD vs calibration standards concentration, using weighting factor (1/x^2) in accordance with Equation (1): […]
The pharmacokinetic parameters including Cmax, Tmax, AUC0-t, AUC0-inf, T1/2 and MRTlast of the arginine in rat plasma were determined from the concentration time data by using non-compartmental analysis (Phoenix WinNonlin 6.3, Pharsight Corporation, Princeton, N.J., USA).
Statistical analysis of PK parameters was performed by one way ANOVA followed by Dunnett's Post Test (L-Arginine Base vs ResArgin, L-Arginine HCl, and Arginine Silicate Inositol, respectively).

vasodilatory response = conditions: in vivo; cited from earlier work
wound healing [2] = conditions: 17 g/day, after two weeks, cited from earlier work
wounds = conditions: ingested; mice; cited from earlier work
[3] = tested on: blood proteins related to vasodilation and heart health; experiment: Blood proteins after ASI treatment; conditions: in vivo
wound healing [4] = experiment: Example 2: topical ASI hydrogel, Vits, et al. ablative laser wound protocol; type: in vivo, human; conditions: expected
Procedure: Wound 1 (2013) December 30.
The Vits, et al. protocol is used as follows. In 22 healthy men (experimental group, n=11; control group, n=11) wounds are induced by ablative laser on both thighs. Hydrogel (placebo) is applied on one of the two wounds, and Hydrogel (containing ASI) is applied on the wound of the other thigh. Progress in wound healing was documented via planimetry on days 1, 4 and 7 after wound induction. From day 9 onwards wound inspections were performed daily accompanied by a change of the dressing and a new application of the gel.

[5] = Human clinical PK/PD/safety study of Nitrosigine (plasma arginine, serum silicon); type: in vivo
From the text: See, Kalman D, Feldman S, Samson A, Krieger D., “A clinical evaluation to determine the safety, pharmacokinetics and pharmacodynamics of an inositol-stabilized arginine silicate dietary supplement in healthy adult males,” The FASEB Journal (April 2014) 28(1 Suppl.): LB418.
Purpose: The purpose of this study was to characterize the PK/PD of Nitrosigine®, an inositol-stabilized arginine silicate dietary supplement.
Type: Prospective, pharmacokinetic (PK)/pharmacodynamic (PD)/safety clinical trial.
Dosing: Nitrosigine® was administered as daily doses of 1,500 mg (3×500 mg tablets).
Visit 2: single dose evaluation (0-6 hrs), 1500 mg—this was also utilized as the first dose of the 14 day study. It is noted in addition that Visit 2 is also the beginning of the 14 day study, during which subjects take product once a day for 14 days.
Visit 3: 14 days later, single dose (0-6 hrs)
PK Measurements: Plasma arginine and serum silicon levels were measured after the first dose on Day 1 and again after a dose taken on Day 14, after 14 days of dosing.

[6] = tested on: muscle soreness, muscle damage, and recovery; experiment: Example 3: clinical study of muscle soreness, muscle damage and recovery; type: in vivo, human; conditions: ASI 750 mg 2×/day for 14 days with training regimen; expected
Procedure: Clinical Study to measure muscle soreness, muscle damage, and recovery. Crossover PCT.
Study group: n=16 males exercising <150 mins/week.
Secondary endpoints: NO level, blood pressure, heart rate, leg circumference, patient survey/self-assessment, e.g., visual analog scale (VAS) for pain, intramuscular biopsy.

wound healing [7] = experiment: Example 1: oral ASI, Kirk, et al. wound healing protocol in human volunteers; type: in vivo; conditions: ASI 1500 mg daily, 2 weeks; expected
Procedure: The Kirk, et al. protocol is used as follows. […] Fifteen volunteers receive a placebo tablet. Fibroplastic wound responses are assessed by inserting a polytetrafluoroethylene catheter subcutaneously into the right deltoid region. Epithelialization is examined by creating a 2×2 cm split thickness wound on the lateral aspect of the upper thigh. Mitogenic response of peripheral blood lymphocytes to concanavalin A, phytohemagglutinin, pokeweed mitogen, and allogeneic stimuli is assayed at the beginning and end of supplementation. Polytetrafluoroethylene catheters were analyzed for alpha-amino nitrogen (assessment of total protein accumulation), hydroxyproline (index of reparative collagen synthesis), and DNA accumulation (index of cellular infiltration).

Nitric oxide (NO) levels = experiment: Nitric oxide levels by salivary test strips in the human clinical study; type: in vivo
Procedure: NO was measured using salivary test strips, using a color scale for “Depleted”, “Low”, and “Normal” levels. […] Six subjects who were “Depleted” at Visit 2 increased to “Low” at Visit 3, while no subjects went from “Low” at Visit 2 to “Depleted” at Visit 3. In addition, the Visit 3 treatment after 1 hr gave 3 subjects “Depleted”, 4 subjects “Low”, and 3 subjects “Normal.” This “asymmetric” change pattern was statistically significant (p=0.031).

[8] = arginine in plasma, fasted male Sprague Dawley rats, single oral dose equivalent to 500 mg L-Arginine/kg b.w.
[9] = rat, 500 mg/kg, arginine in plasma, fasted male Sprague Dawley rats, single oral dose equivalent to 500 mg L-Arginine/kg b.w.
[10] = rat, 500 mg/kg, arginine in plasma, fasted male Sprague Dawley rats, single oral dose equivalent to 500 mg L-Arginine/kg b.w., read-out: Cmax
[11] = rat, 500 mg/kg, arginine in plasma, fasted male Sprague Dawley rats, single oral dose equivalent to 500 mg L-Arginine/kg b.w., read-out: Tmax
[12] = plasma arginine, rat, oral, 500 mg/kg L-Arginine equivalent

`N=C(N)NCCC[C@H](N)C(=O)O` [L-Arginine Base, L-Arginine] showed an AUC% extrap [1, 8] of 8.195 ± 5.9280%, an AUC(0-inf) [1, 9] of 486 ± 114 µg·h/mL and an AUC(0-t) [1, 9] of 445 ± 106 µg·h/mL. The MRT last [1, 9] was 1.66 ± 0.34 h, the half-life [1, 9] was 1.41 ± 0.51 h and the Cmax [1, 10] was 202 ± 54.3 µg/mL. For the same compound, the Tmax [1, 11] was 0.65 ± 0.335 h and the “amount that induces a significant vasodilatory response” value (vasodilatory response) was “ca. 5 grams”.

`Cl.N=C(N)NCCC[C@H](N)C(=O)O` [L-Arginine HCl, L-Arginine hydrochloride] gave an AUC% extrap [1, 8] of 27.645 ± 23.5890%, an AUC(0-inf) [1, 9] of 442 ± 122 µg·h/mL and an AUC(0-t) [1, 9] of 306 ± 92.7 µg·h/mL. The MRT last [1, 9] was 2.48 ± 0.368 h, the half-life [1, 9] was 3.08 ± 2.08 h and the Cmax [1, 10] was 94.7 ± 26.2 µg/mL. For the same compound, the Tmax [1, 11] was 1.1 ± 0.548 h and the “amount that induces a significant vasodilatory response” value (vasodilatory response) was “ca. 5 grams”.

For `N=C(N)NCCC[C@H](N)C(=O)O` [arginine, L-arginine], the “hydroxyproline and protein accumulation at the wound site vs non-supplemented controls” value (wound healing [2]; 30 elderly patients) is listed as “significantly greater”, the IGF-1 (wound healing [2]) is listed as “elevated” and the lymphocyte response (wound healing [2]) is listed as “elevated”.

In the case of `O=[Si]=O` [silica], the “closing and healing of wounds” value (wounds) is listed as “effective at helping to close and heal wounds”.

In the case of arginine silicate inositol [ASI], the “effect on blood proteins related to vasodilation and heart health” value [3] is reported as “significantly enhances”, the “wound healing of wounds treated with ASI-containing gel vs placebo hydrogel” value (wound healing [4]) is reported as “more rapid improvement in wound healing” and the “adverse events related to the study medication” value ([5]; 1,500 mg daily for 14 days, 10 subjects) is reported as “No adverse events related to the study medication”. The “increase of plasma arginine concentration relative to baseline” value ([5]; in 30 minutes, single dose 1,500 mg, human) was “greater than 30%”, the “Arginine absorption: Tmax Day 1” value ([5]; plasma arginine, 10 healthy males, 1,500 mg oral, Day 1) was 1.05 ± 0.50 h and the “Silicon absorption: Tmax Day 1” value ([5]; serum silicon, 10 healthy males, 1,500 mg oral, Day 1) was 2.15 ± 1.75 h. The “duration of significantly raised blood arginine and silicon levels” value ([5]; single dose, human) was “up to 3 hours”, the “cytokine markers of inflammation” value [6] was “decrease or improvement” and the “listed measurement parameters (e.g. NO levels)” value [6] was “improve”. For the same compound, the AUC% extrap [1, 8] was 16.987 ± 10.5790%, the AUCinf [1, 8] was 1499.898 ± 233.6230 µg·h/mL and the AUClast [1, 8] was 1248.990 ± 276.1000 µg·h/mL. The Cmax [1, 8] was 474.300 ± 169.1040 µg/mL, the MRTlast [1, 8] was 2.220 ± 0.2450 h and the T1/2 [1, 8] was 2.159 ± 0.8280 h. For the same compound, the Tmax [1, 8] was 1.100 ± 0.5480 h, the “AUCinf increase compared with Arginine base” value [1, 12] was 3 fold and the “AUCinf increase over Arginine base in plasma” value [1, 12] was 209%. The “Cmax increase compared with Arginine base” value [1, 12] was 2.35 fold, the “Cmax increase over Arginine base in plasma” value [1, 12] was 135% and the “amount with which similar vasodilatory responses have been shown” value (vasodilatory response) was 750 mg. For the same compound, the “rate of epithelialization of the skin defect vs placebo” value (wound healing [7]) was “significantly enhanced”, the “rate of wound healing vs placebo” value (wound healing [7]) was “increased” and the “serum insulin-like growth factor-1 (IGF-1) levels” value (wound healing [7]) was “significantly elevated”. The “wound catheter hydroxyproline accumulation and total protein content vs placebo” value (wound healing [7]) was “increase”, the “change in NO levels after 14 days of administration” value (Nitric oxide (NO) levels; 1,500 mg/day for two weeks, Visit 2 vs Visit 3) was “significant increase” and the “subjects with NO level Depleted” value (Nitric oxide (NO) levels; Visit 3 treatment after 1 hr) was 3 subjects. The “subjects with NO level Low” value (Nitric oxide (NO) levels; Visit 3 treatment after 1 hr) was 4 subjects, the “subjects with NO level Normal” value (Nitric oxide (NO) levels; Visit 3 treatment after 1 hr) was 3 subjects and the “subjects who were Depleted at Visit 2 and increased to Low at Visit 3” value (Nitric oxide (NO) levels; salivary NO strips, 10 subjects, 14 days daily dosing) was “Six”.
